These results are taken from patent US6991818B2, “Compound iso-squamocin obtained from seeds of annona squamosa and composition containing the same” (Council of Scientific & Industrial Research, priority 2001, dated 2006).

In brackets after ≈: the same amount, converted by molar mass. Where two headings read alike, the source gives them in different places.

The term mortality denotes the share of the test organisms that died. By IC50 is commonly meant the point on the concentration scale where inhibition reaches its midpoint.

The subject of series [1] is certain human tumor cell lines. To be noted: values as low as; cited from earlier work.
The subject of series [2] is newly hatched variegated cutworm (peridroma saucia, Noctuidae). The series can be described thus: Chronic larval growth bioassay. It counts as in vivo. To be noted: 10 days at 26° C.; for activity at 20 ppm: Peridroma saucia, 240 h; for activity at 20 ppm / Larval growth, % of control / Larval survival, % of control: newly hatched larvae (n=20), 20 ppm. As for the experimental part:
Chromic larveal growth bioassay % of control given in parenthesis. […] These bioassays were carried out according to the procedure described earlier (M. B. Isman, O. Koul, A. Luczynski and J. Kaminski, J. Agric. Food Chem. 38, 1406 (1990). These tests were performed by Prof. M. B. Isman and colleagues at University of British Columbia, Vancouver, Canada.

The test system of the next series is colon cell line (H-29). To be noted: cited from earlier work.
Series [3] has as its system yellow fever mosquito Aedes aegyptii. To be noted: cited from earlier work.
Another series concerns lung cell line (A-549). To be noted: cited from earlier work.
The subject of series [4] is Southern Corn rootworm (SCRW). The series can be described thus: Evaluation screen (EVAL) for insecticidal activity. It counts as in vivo. To be noted: 250 ppm.
Series [5] has as its system oriental armyworm (Mythimna separata WLK) larvae. The series can be described thus: Insect antifeedant bioassay on sorghum leaf discs. It counts as in vivo. To be noted: for Damage rating: 0.05% in methanol, visual scale 1 to 9 (1=<10%, 9=>80% leaf area consumed); for mortality: first and third instar larvae, concentration of 0.05% (MeOH) at 27°, untreated control 7% mortality. The procedure:
The sample solutions (10 μl of a 0.05% solution) were applied evenly to the lower surface of leaf discs (5 cm^2) cut from sorghum hybrid variety CSH5 and the discs were allowed to dry on filter papers. After drying the leaf, discs were offered to 10 first instar M. separata larvae in plastic cups or to one third instar larva in 9-cm (diameter) plastic petric dishes. All larvae were starved for 2 h before the test and the leaf and the leaf discs were kept on moisture filter papers to keep them turgid. The larvae were confined to leaf discs for 24 h and during the period the larvae scratched or consumed >80% of the leaf disc area in the untreated controls. The leaf discs were rated visually for the extent of feeding on a scale upto 1 to 9 (1=<10%, 2=11 to 20%, 3=21 to 30%, 4=31 to 40%, 5=41 to 7=61 to 70%, 8=71 to 80%, 9=>80% leaf area scratched consumed). The larvae were then stirred for 12 h and weighed. Isosquamocin was evaluated by this procedure and the results have shown that it drastically. The feeding of the leaves of sorghum hybrid variety CSH 5 at a concentration of 0.05% in methanol) in comparison with control (methanol) against the first instar and third instar larvae of oriental armyworm (Mythimna separata WLK). It is very toxic to first instar larvae causing high larval mortality and the results are presented below: […]

The test system of series [6] is Two spotted spidermite (TSSM). The series can be described thus: Evaluation screen (EVAL) for insecticidal activity. It is filed as in vivo. To be noted: 250 ppm. An excerpt: (§1) Two spotted spidermite, green peach aphid (GPA) and corn plant hopper (GPH) when they were subjected evaluation screen (Eval) and evaluation screen delayed toxicity test EVDT for the insecticidal activity and results are summarized below: […]

A short description of series [7]: Solubility of the waxy substance. It is filed as physicochemical.
Series [8] concerns Two spotted spidermite (TSSM). The series can be described thus: Evaluation screen delayed toxicity test (EVADT). It counts as in vivo. To be noted: 250 ppm.
Source text: as §1

For the next series, the system named is corn plant hopper (CP-H). The series can be described thus: Evaluation screen delayed toxicity test (EVADT). It counts as in vivo. To be noted: 250 ppm.
Source text: as §1

The next series concerns L-5178 Y. To be noted: in vitro cytotoxic activity against L-5178 Y; cited from earlier work.
The next series concerns green peach aphid (GPA). The series can be described thus: Evaluation screen delayed toxicity test (EVADT). It is filed as in vivo. To be noted: 250 ppm.
Source text: as §1

The next series relates to two sported spider mite. To be noted: in vivo; cited from earlier work.
The subject of a further series is southern corn rootworm. To be noted: in vivo; cited from earlier work.
In another series the test system is cotton aphid. To be noted: in vivo; cited from earlier work.
[9] abbreviates: First instar larvae, 0.05% in methanol on leaf discs, 24 h.

Take `CCCCCCCCCC[C@H](O)[C@H]1CC[C@H]([C@H](O)CC[C@H](O)[C@@H]2CC[C@@H](CCCCCCC[C@@H](O)CC3=C[C@H](C)OC3=O)O2)O1` [bullatalicin, bullatalicin/squamostatin-B]: the ED50 in [1] is on record as ≥ 10^−7 ug/ml. The activity at 20 ppm in [2] (read-out: Larval growth, % of control) is 135%; in [2] (read-out: Larval survival, % of control) it was 100%. Besides, the “times more toxic than adriamycin” value in the series on colon cell line (H-29) and in the series with lung cell line (A-549) was “about 10,000 times” throughout. Also, the “LC 50” value in series [3] is recorded as 9 mg/lit^−1.
Compound isosquamocin had an SCRW in [4] of 100. For the same compound, the “Larval Survival (%)” value in [5] (setting [9]) turned out to be 10.4%. The “Mean larval mass” value in series [5] (setting [9]) was determined as 0.2 mg; in series [5] (Third instar larvae, 0.05% in methanol on leaf discs, 24 h), 15.7 mg. The Damage rating was 1.3 in series [5] (First instar larvae) and 1.0 in series [5] (Third instar larvae). In [5], this compound returned a mortality of 70%. In addition, the TSSM entry in series [6] is recorded as “L8 (Less than 80% mortality)”; in series [8], “L9 (Less than 90% reduction in population)”. Further, the “Larval growth, % of control” value in [2] was 20%. Further, in series [2], the “Larval survival, % of control” value is on record as 55%. Also, the “Solubility in ether, chloroform, dichloromethane, acetone, methanol and ethyl acetate” value in [7] was “readily soluble”. Also, the “Solubility in petroleum ether/hexane and water” value in series [7] is recorded as “insoluble or very sparingly soluble”. Further, in the series with corn plant hopper (CP-H), the CP-H result was “G8 (Greater than 80% reduction in population)”.
On to `CCCCCC[C@@H](O)CCC[C@H](O)[C@@H]1CC[C@@H]([C@H](O)CC[C@@H](O)[C@@H]2CC[C@@H](CCCCCCCCCC3=C[C@@H](C)OC3=O)O2)O1` [squamostatin-A], for which, in series [2], the “Larval growth, % of control” value was determined as 138% and the “Larval survival, % of control” value came to 100%. The IC50 in the series on L-5178 Y was 0.5 µg/mL (≈ 0.783 µM).
Turning to “bullatanocin/squamostatin-C/Annonin-V/Cherimolin-II”, the “times more toxic than adriamycin” value in the series on colon cell line (H-29) and with lung cell line (A-549) was “about 10,000 times” throughout.
Regarding `CCCCCCCCCC[C@H](O)[C@H]1CC[C@H]([C@H]2CC[C@H]([C@H](O)CCCCCCCCCC[C@@H](O)CC3=C[C@H](C)OC3=O)O2)O1` [squamocin-G], the SCRW in series [4] was 100. In addition, in series [5], the mortality is 70%. Moreover, the TSSM result in series [6] was “L8 (Less than 80% mortality)”. Further, in series [2], the “Larval growth, % of control” value turned out to be 34% and the “Larval survival, % of control” value was found to be 45%. Also, in [2] (chronic larval growth bioassay), the “EC 50” value came to 5.65 ppm and the “LC 50” value was 12 ppm. In addition, the TSSM result in [8] is “L9 (Less than 90% reduction in population)”. In the series with corn plant hopper (CP-H), the CP-H entry was “G8 (Greater than 80% reduction in population)”. Further, the GPA result in the series on green peach aphid (GPA) is reported as “L8 (Less than 80% mortality)”.
On to `CCCCCCCCCCCCC(O)C1CCC(C(O)CCCCC(O)CCCCCC(O)CC2=CC(C)OC2=O)O1` (stereo not drawn) [annonacin A, reference compound], for which, in series [3], the “LC 50” value is 10.8 mg/lit^−1.
With bullatacin, the “insecticidal concentration, two sported spider mite” value with two sported spider mite is given as 10 ppm. The “insecticidal concentration, southern corn rootworm” value in the series with southern corn rootworm is reported as 24 ppm. Moreover, the “insecticidal concentration, cotton aphid” value with cotton aphid is recorded as 1 ppm.
